Measured values taken from ChEMBL document CHEMBL3525915, “Elucidation of a novel bioactivation pathway of a 3,4-unsubstituted isoxazole in human liver microsomes: formation of a glutathione adduct of a cyanoacrolein derivative after isoxazole ring opening” (Drug Metab Dispos, 2011).
Blank lines part the entries; values can stand above or below the compound they belong to.

Columns and labels:
[1] = system: Liver microsome; assay: Drug metabolism in human liver microsomes assessed as (Z)-3-cyano-2-hydroxy-N-((2-isopropyl-7-methyl-1-oxoisoindolin-5-yl)methyl)acrylamide formation at 20 uM for 1 hr by LC-MS/MS analysis in presence of NADPH; format: ADME
[2] = system: Liver microsome; assay: Drug metabolism in human liver microsomes assessed as 2-amino-5-(1-(carboxymethylamino)-3-(3-cyano-5-((2-isopropyl-7-methyl-1-oxoisoindolin-5-yl)methylamino)-4,5-dioxopentan-2-ylthio)-1-oxopropan-2-ylamino)-5-oxopentanoic acid formation at 20 uM (drug stock solution contained ethanol) by LC-MS/MS analysis in presence of NADPH; format: ADME
[3] = system: Liver microsome; assay: Retention time of the compound in human liver microsomes in presence of NADPH at 37 degC incubated for 1 hr by liquid chromatography; format: ADME
[4] = system: Liver microsome; assay: Drug metabolism in human liver microsomes assessed metabolite formation at 20 uM in absence of NADPH at 37 degC incubated for 1 hr by liquid chromatography; format: ADME
[5] = system: Liver microsome; assay: Drug metabolism in human liver microsomes assessed ratio of sum peak areas of metabolite M1 and M2 to peak area of internal standard at 20 uM in presence of NADPH and 1 mM 1-ABT at 37 degC incubated for 1 hr by liquid chromatography; format: ADME
[6] = system: Liver microsome; assay: Drug metabolism in human liver microsomes assessed ratio of sum peak areas of metabolite M1 and M2 to peak area of internal standard at 20 uM in presence of NADPH and in absence of 1 mM 1-ABT at 37 degC incubated for 1 hr by liquid chromatography; format: ADME
[7] = system: Liver microsome; assay: Drug metabolism in human liver microsomes assessed as metabolite formation at 20 uM (drug stock solution contained 1% acetonitrile) LC-MS/MS analysis in presence of NADPH and GSH; format: ADME
[8] = Drug level in 0.1 N NaOH aqueous solution assessed as compound formation treated with 40 uM N-((2-isopropyl-7-methyl-1-oxoisoindolin-5-yl)methyl)isoxazole-5-carboxamide for 20 mins by LC-MS/MS analysis; format: physicochemical; settings: buffer
[9] = system: Liver microsome; assay: Drug level in human liver microsomes assessed as compound formation treated with 20 uM N-((2-isopropyl-7-methyl-1-oxoisoindolin-5-yl)methyl)isoxazole-5-carboxamide for 1 hr by LC-MS/MS analysis in presence of NADPH; format: ADME
[10] = system: Liver microsome; assay: Drug level in human liver microsomes assessed as compound formation treated with 20 uM N-((2-isopropyl-7-methyl-1-oxoisoindolin-5-yl)methyl)isoxazole-5-carboxamide (drug stock solution contained 1% methanol) LC-MS/MS analysis in presence of NADPH and GSH; format: ADME
[11] = Drug level in 0.1 N NaOH aqueous solution assessed as compound formation treated with 40 uM N-((2-isopropyl-7-methyl-1-oxoisoindolin-5-yl)methyl)isoxazole-5-carboxamide for 20 mins at pH 7.5 by LC-MS/MS analysis in presence of formaldehyde and GSH; format: physicochemical; settings: buffer, pH 7.5, 20 min
[12] = system: Liver microsome; assay: Drug level in human liver microsomes assessed as compound formation treated with 20 uM N-((2-isopropyl-7-methyl-1-oxoisoindolin-5-yl)methyl)isoxazole-5-carboxamide (drug stock solution contained 1% acetonitrile) LC-MS/MS analysis in presence of NADPH and GSH; format: ADME
[13] = system: Liver microsome; assay: Drug metabolism in human liver microsomes treated with 20 uM N-((2-isopropyl-7-methyl-1-oxoisoindolin-5-yl)methyl)isoxazole-5-carboxamide assessed compound formation in presence of NADPH using [13C]-labeled CH3OH drug stock solution at 37 degC incubated for 1 hr by liquid chromatography; format: ADME
[14] = system: Liver microsome; assay: Drug level in human liver microsomes assessed as compound formation treated with 20 uM N-((2-isopropyl-7-methyl-1-oxoisoindolin-5-yl)methyl)isoxazole-5-carboxamide (drug stock solution contained 1% ethanol) LC-MS/MS analysis in presence of NADPH; format: ADME
[15] = system: Liver microsome; assay: Drug level in human liver microsomes assessed as compound formation treated with 20 uM N-((2-isopropyl-7-methyl-1-oxoisoindolin-5-yl)methyl)isoxazole-5-carboxamide (drug stock solution contained 1% acetonitrile) LC-MS/MS analysis in presence of NADPH; format: ADME

SMILES: Cc1cc(CNC(=O)C(=O)C(C#N)C(C)SC[C@H](NC(=O)CC[C@H](N)C(=O)O)C(=O)NCC(=O)O)cc2c1C(=O)N(C(C)C)C2 (single isomer, unassigned; diastereomer 1)
- Retention_time [3]: 10.82 min

SMILES: Cc1cc(CNC(=O)C(=O)C(C#N)CSC[C@H](NC(=O)CC[C@H](N)C(=O)O)C(=O)NCC(=O)O)cc2c1C(=O)N(C(C)C)C2 (some centres not stated)
- Drug metabolism [10]: metabolite_detected
- Drug metabolism [8]: metabolite_detected
- Drug metabolism [11]: metabolite_detected
- Retention_time [3]: 9.72 min
- Drug metabolism [12]: metabolite_not_detected
- Drug metabolism [13]: metabolite_detected

SMILES: Cc1cc(CNC(=O)C(=O)C(C#N)C(C)SC[C@H](NC(=O)CC[C@H](N)C(=O)O)C(=O)NCC(=O)O)cc2c1C(=O)N(C(C)C)C2 (single isomer, unassigned; diastereomer 2)
- Drug metabolism [14]: metabolite_detected
- Retention_time [3]: 10.08 min
- Drug metabolism [15]: metabolite_not_detected

Continued, values first:

- Drug metabolism [1]: metabolite_detected
- Drug metabolism [2]: metabolite_detected
- Retention_time [3]: 17.06 min
- Drug metabolism [4]: metabolite_not_detected
- Ratio [5]: 0.128
- Ratio [6]: 1.22
- Drug metabolism [7]: metabolite_not_detected
SMILES: Cc1cc(CNC(=O)c2ccno2)cc2c1C(=O)N(C(C)C)C2

- Drug metabolism [8]: metabolite_detected
- Retention_time [3]: 12.69 min
SMILES: Cc1cc(CNC(=O)C(=O)CC#N)cc2c1C(=O)N(C(C)C)C2

- Drug metabolism [9]: metabolite_detected
- Drug metabolism [8]: metabolite_detected
- Retention_time [3]: 13.55 min
SMILES: Cc1cc(CNC(=O)/C(O)=C/C#N)cc2c1C(=O)N(C(C)C)C2
